Data set [1] relates to platelet aggregation induced by adrenaline. Kind of data set: "Ex vivo" platelet antiaggregating action. The following applies: rabbit PRP, 35 mcg/ml adrenaline. It is filed as in vivo, rabbits. The text has this: By this test, the effect of VQG 582, acetylsalicylic acid or sulfinpyrazone pretreatment of rabbits on the platelet aggregation induced on the PRP of these animals by 35 mcg/ml adrenaline, has been valued.

Data set [2] in a line: Acute toxicity in the mouse (LD50, Probits method). The following applies: in vivo. As to the method:
(§1) The study has been performed using whitish Swiss mice weighing about 20 g and Wistar rats, in the phase of weight increase, weighing about 150 g, of both sexes. The product has been administered to fasted animals (2 hours for mice and 18 hours for rats) by gastric tube (oral route) or intraperitoneal injection. Sulfipyrazone has been used as reference drug.
(§2) For the statistic calculation of LD50 and of the respective confidence limits for p=0.05, the Probits method was followed (Finney D. J.--Probit analysis-Cambridge Univ. Press, London and New York, 1952), taking into account the death rates in the 8 days following the treatments.

Data set [3] can be described thus: Acute toxicity in the rat (LD50, Probits method). The following applies: in vivo. As to the method: as §1, §2
For data set [4], the system named is cutaneous temperature of the paw. As to the kind of experiment: Vasodilating action in the mouse (cutaneous temperature of the paw). It is filed as in vivo, Swiss male whitish mice. The following applies: for mean variation of the cutaneous temperature in the 3h following the treatment: in °C (unit assumed). The protocol: Swiss male whitish mice weighing about 20 g have been used. The cutaneous temperature of the paw has been measured, in conditioned room by means of a suitable thermometric equipment, (a) for three times, at 30 minutes intervals, before treatment (basal temperature), and (b) every 30 minutes in the three hours following the drugs treatment.

For data set [5], the system named is thrombocytopenia induced by Arthus reaction. As to the kind of experiment: Inhibition of the thrombocytopenia induced by Arthus reaction in the guinea-pig. It is filed as in vivo, guinea pigs. To be noted: guinea pig after antigenic reaction, 100 mg/kg os; for % inhibition: thrombocytopenia. An excerpt:
The method described by White and Butler (Thromb. Diath. Haemorr., 34, 533, 1975) has been used.

Data set [6] can be described thus: Hypocholesterolemic action in rats fed with Nath's diet. The class given is in vivo. To be noted: 200 mg/kg per os, 40 days.
Method: 24 Hours after the last administration, the survived animals have been sacrificed and the dosage of total serum cholesterol, serum triglycerides, serum phospholipids and serum free fatty acids has been performed according to the methods described by Abell et al. (J. Biol. Chem., 195, 375, 1952), VAN HANDALL et al. (J. Lab. Clin. Med., 50, 152, 1957), MORRISON (Anal. Biochem., 7, 218, 1964), DOLE AND MEINERTZ (J. Biol. Chem., 235, 2595, 1960).
The livers were withdrawn and weighed, homogenized and extracted in soxhlet. The extracted lipids, evaporated, have been weighed and expresses as % of fresh organ.
For data set [7] the following is noted: rat, in vivo.
The nature of data set [8]: Pharmacokinetics in the rat by the oral route. To be noted: equimolar doses, compared with VQG 582.
Setting [9] is: ip, intraperitoneal route, female.
Where [10] appears, read: ip, intraperitoneal route, male.

As a reminder, the LD50 is the dose at which mortality reaches 50%. A lower LD50 goes with greater toxicity. The % inhibition is the drop in the measured response relative to a control, in per cent.

For `CC(=O)Oc1ccccc1C(=O)O` [ASA, acetylsalicylic acid], the inhibition % is reported as 30% in data set [1] (50 mg/kg os), 70% in data set [1] (75 mg/kg os) and 100% in data set [1] (100 mg/kg os).

Regarding `O=C(OCC1(CC[S+]([O-])c2ccccc2)C(=O)N(c2ccccc2)N(c2ccccc2)C1=O)c1cccnc1` (centres unmarked) [VQG 582, 1,2-diphenyl-4-[2-(phenylsulfinyl)-ethyl]-4-(nicotinoyloxymethyl)-pyrazolidine-3,5-dione], the LD50 at 192 h was 3250 mg/kg in data set [2] (setting [9]); 3130 mg/kg in data set [2] (setting [10]); more than 4000 mg/kg in data set [2] (po, female); more than 4000 mg/kg in data set [2] (po, male); 2320 mg/kg in data set [3] (setting [9]); 2690 mg/kg in data set [3] (setting [10]). Moreover, the LD50 at 192 h in data set [3] (po, female) is more than 4000 mg/kg; in data set [3] (po, male), more than 4000 mg/kg. The max. effect time in data set [4] (100 mg/kg os) turned out to be 60 min. Besides, the “mean variation of the cutaneous temperature in the 3h following the treatment” value (from here on “mean variation”) in data set [4] (100 mg/kg os) is “+0.60”. Further, in data set [5], the “N. platelets ± S.E.” value is reported as 218.5 10^3 /mm^3. Besides, the “% inhibition” value in data set [5] is on record as 70.2%. Besides, the inhibition % in data set [1] (40 mg/kg os) came out at 15%; in data set [1] (80 mg/kg os) it was 70%; in data set [1] (120 mg/kg os), 85%. In addition, the “% dead animals” value in data set [6] turned out to be 10%. The compound further displayed a serum cholesterol in data set [6] of 294.1 mg/100 ml. Besides, the “serum free fatty acids” value in data set [6] was 0.31 mg/100 ml. The serum phospholipids in data set [6] amounted to 157.1 mg/100 ml. Further, the serum triglycerides in data set [6] was found to be 113.8 mg/100 ml. Besides, in data set [6] (% of fresh organ), the liver lipids % is 16.0%. In addition, the “pharmacological action after oral administration” value in data set [7] is “pharmacological action clearly delayed”. The “blood concentrations expressed as sulfinpyrazone” value in data set [7] (po) is given as “prolongation of the blood concentrations expressed as sulfinpyrazone”. Besides, the metabolism result in data set [7] (po) was “metabolized via an intermediate step, respectively to nicotinic acid and sulfinpyrazone”. For the same compound, the “presence of unchanged compound in the plasma” value in data set [7] (po) is given as “found unchanged in the plasma 30 minutes to 1 hour after the treatment”.

As to `O=C(O)c1cccnc1` [nicotinic acid], in data set [4] (50 mg/kg os), the max. effect time is 30 min and the “mean variation” value was “+0.75”. In addition, in data set [6], the “% dead animals” value amounted to 10%, the serum cholesterol was found to be 324.3 mg/100 ml, the “serum free fatty acids” value was 0.39 mg/100 ml and the serum phospholipids is on record as 161.7 mg/100 ml. For the same compound, the AUC entry in data set [7] (po) is “AUC superimposable to VQG 582”. In addition, the absorption entry in data set [8] was “faster absorption”.

Take `O=C1C(CC[S+]([O-])c2ccccc2)C(=O)N(c2ccccc2)N1c1ccccc1` (centres unmarked) [sulfinpyrazone, 1,2-diphenyl-4-[2-(phenylsulfinyl)ethyl]-pyrazoline-3,5-dione]: the LD50 at 192 h came out at 159 mg/kg in data set [2] (setting [9]); 163 mg/kg in data set [2] (setting [10]); 335 mg/kg in data set [2] (po, female); 368 mg/kg in data set [2] (po, male); 157 mg/kg in data set [3] (setting [9]); 149 mg/kg in data set [3] (setting [10]). The LD50 at 192 h in data set [3] (po, female) amounted to 390 mg/kg; in data set [3] (po, male), 348 mg/kg. In addition, the “mean variation” value in data set [4] (100 mg/kg os) is given as “+0.05”. Also, the “N. platelets ± S.E.” value in data set [5] was 204.3 10^3 /mm^3. Moreover, the “% inhibition” value in data set [5] amounted to 63.1%. Moreover, the inhibition % in data set [1] (40 mg/kg os) came to 5%; in data set [1] (80 mg/kg os), 30%; in data set [1] (120 mg/kg os), 70%.

Values taken from patent US4542141A, “Compound having vasodilating, antiaggregating and hypocholesterolemic activities, process for the preparation thereof and pharmaceutical compositions therefrom” (Edmond Pharma s.r.l., priority 1982, dated 1985).
